# Source: PubChem BioAssay AID1963434 (Molecular Pharmacology Branch, DTP, NCI, 2024)
# System: 755483-174-R-J1-PDC complex spheroid growth, percent test/control
# Assay: Anticancer human tumor 755483-174-R-J1-PDC patient-derived rhabdomyosarcoma cell line growth inhibition [Asc]
# Settings: for IC50: curve of first compound; for viability, T/C: stronger effect = lower value
# In short: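 Spheroid model: tumor line + HUVEC + hMSC. Single agents and combinations; top conc. at/near clinical Cmax (10 microM if undetermined), half-log dilutions. DMSO stocks at 800-fold test concentration.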
# [1] = second compound 0.1 µM, first compound 0.0316 µM
# [2] = second compound 0.1 µM, first compound 0.1 µM
# [3] = second compound 0.1 µM, first compound 0.316 µM
# [4] = second compound 0.1 µM, first compound 1 µM
# [5] = second compound 0.1 µM, first compound 3.16 µM
# [6] = second compound 0.1 µM, first compound 10 µM
# [7] = second compound 0.316 µM, first compound 0.0316 µM
# [8] = second compound 0.316 µM, first compound 0.1 µM
# [9] = second compound 0.316 µM, first compound 0.316 µM
# [10] = second compound 0.316 µM, first compound 1 µM
# [11] = second compound 0.316 µM, first compound 3.16 µM
# [12] = second compound 0.316 µM, first compound 10 µM
# [13] = second compound 1 µM, first compound 0.0316 µM
# [14] = second compound 1 µM, first compound 0.1 µM
# [15] = second compound 1 µM, first compound 0.316 µM
# [16] = second compound 1 µM, first compound 1 µM
# [17] = second compound 1 µM, first compound 3.16 µM
# [18] = second compound 1 µM, first compound 10 µM
# [19] = second compound 3.16 µM, first compound 0.0316 µM
# [20] = second compound 3.16 µM, first compound 0.1 µM
# [21] = second compound 3.16 µM, first compound 0.316 µM
# [22] = second compound 3.16 µM, first compound 1 µM
# [23] = second compound 3.16 µM, first compound 3.16 µM
# [24] = second compound 3.16 µM, first compound 10 µM
# [25] = second compound 10 µM, first compound 0.0316 µM
# [26] = second compound 10 µM, first compound 0.1 µM
# [27] = second compound 10 µM, first compound 0.316 µM
# [28] = second compound 10 µM, first compound 1 µM
# [29] = second compound 10 µM, first compound 3.16 µM
# [30] = second compound 10 µM, first compound 10 µM
# 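Further: spheroids exposed to compounds for seven days before readout.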
smiles,measurement,setting,value
C=C(F)C(=O)N1CCN(c2nc(OCC3CCCN3C)nc3c2CCN(c2cccc4cccc(Cl)c24)C3)CC1CC#N (stereo not given) + Cc1c(S(C)(=O)=O)c(-c2cc(F)cc(N3CCN(c4ccc(NS(=O)(=O)c5ccc(NC(CCN6CCC(C(=O)OCCCP(=O)(O)O)CC6)CSc6ccccc6)c(S(=O)(=O)C(F)(F)F)c5)cc4)CC3)c2)c(-c2ccc(Cl)cc2)n1C(C)C,IC50,second compound 0.1 µM,235 nM
same,IC50,second compound 0.316 µM,< 31.6 nM
same,IC50,second compound 1 µM,< 31.6 nM
same,IC50,second compound 3.16 µM,< 31.6 nM
same,IC50,second compound 10 µM,< 31.6 nM
same,"viability, T/C",[1],46.4%
same,"viability, T/C",[2],58.9%
same,"viability, T/C",[3],49.7%
same,"viability, T/C",[4],30.2%
same,"viability, T/C",[5],8.51%
same,"viability, T/C",[6],0.1%
same,"viability, T/C",[7],39.3%
same,"viability, T/C",[8],48.7%
same,"viability, T/C",[9],39.4%
same,"viability, T/C",[10],33.4%
same,"viability, T/C",[11],10.8%
same,"viability, T/C",[12],0.52%
same,"viability, T/C",[13],40.9%
same,"viability, T/C",[14],37.9%
same,"viability, T/C",[15],32%
same,"viability, T/C",[16],20.3%
same,"viability, T/C",[17],5.1%
same,"viability, T/C",[18],1.75%
same,"viability, T/C",[19],35%
same,"viability, T/C",[20],27%
same,"viability, T/C",[21],30.6%
same,"viability, T/C",[22],16.5%
same,"viability, T/C",[23],8.95%
same,"viability, T/C",[24],0.11%
same,"viability, T/C",[25],42.9%
same,"viability, T/C",[26],41.7%
same,"viability, T/C",[27],34%
same,"viability, T/C",[28],20.6%
same,"viability, T/C",[29],11.8%
same,"viability, T/C",[30],0.16%
C=CC(=O)N1CCN(c2nc(=O)n(-c3c(C)ccnc3C(C)C)c3nc(-c4c(O)cccc4F)c(F)cc23)C(C)C1 (stereo not given) + Cc1c(S(C)(=O)=O)c(-c2cc(F)cc(N3CCN(c4ccc(NS(=O)(=O)c5ccc(NC(CCN6CCC(C(=O)OCCCP(=O)(O)O)CC6)CSc6ccccc6)c(S(=O)(=O)C(F)(F)F)c5)cc4)CC3)c2)c(-c2ccc(Cl)cc2)n1C(C)C,IC50,second compound 0.1 µM,> 10000 nM
same,IC50,second compound 0.316 µM,5510 nM
same,IC50,second compound 1 µM,< 31.6 nM
same,IC50,second compound 3.16 µM,> 10000 nM
same,IC50,second compound 10 µM,< 31.6 nM
same,"viability, T/C",[1],79.5%
same,"viability, T/C",[2],46.7%
same,"viability, T/C",[3],58.4%
same,"viability, T/C",[4],72.9%
same,"viability, T/C",[5],62.3%
same,"viability, T/C",[6],56.2%
same,"viability, T/C",[7],45.4%
same,"viability, T/C",[8],64.7%
same,"viability, T/C",[9],44.5%
same,"viability, T/C",[10],57.1%
same,"viability, T/C",[11],53.2%
same,"viability, T/C",[12],46.9%
same,"viability, T/C",[13],47.2%
same,"viability, T/C",[14],47.4%
same,"viability, T/C",[15],54.8%
same,"viability, T/C",[16],49%
same,"viability, T/C",[17],49.3%
same,"viability, T/C",[18],37.7%
same,"viability, T/C",[19],52.4%
same,"viability, T/C",[20],46%
same,"viability, T/C",[21],51.9%
same,"viability, T/C",[22],63.2%
same,"viability, T/C",[23],48.3%
same,"viability, T/C",[24],48.8%
same,"viability, T/C",[25],35%
same,"viability, T/C",[26],34.6%
same,"viability, T/C",[27],50.2%
same,"viability, T/C",[28],42.6%
same,"viability, T/C",[29],32.8%
same,"viability, T/C",[30],42.7%
CCN1C(C(=O)NC23CCC(C(=O)O)(CC2)CC3)C(c2cccc(Cl)c2F)C2(C(=O)Nc3cc(Cl)ccc32)C12CCCCC2 (stereo not given) + Cc1c(S(C)(=O)=O)c(-c2cc(F)cc(N3CCN(c4ccc(NS(=O)(=O)c5ccc(NC(CCN6CCC(C(=O)OCCCP(=O)(O)O)CC6)CSc6ccccc6)c(S(=O)(=O)C(F)(F)F)c5)cc4)CC3)c2)c(-c2ccc(Cl)cc2)n1C(C)C,IC50,second compound 0.1 µM,1740 nM
same,IC50,second compound 0.316 µM,< 9.49 nM
same,IC50,second compound 1 µM,< 9.49 nM
same,IC50,second compound 3.16 µM,< 9.49 nM
same,IC50,second compound 10 µM,26.8 nM
same,"viability, T/C","second compound 0.1 µM, first compound 0.00949 µM",68.7%
same,"viability, T/C","second compound 0.1 µM, first compound 0.03 µM",60.5%
same,"viability, T/C","second compound 0.1 µM, first compound 0.0949 µM",57.5%
same,"viability, T/C","second compound 0.1 µM, first compound 0.3 µM",61.4%
same,"viability, T/C","second compound 0.1 µM, first compound 0.949 µM",65.5%
same,"viability, T/C","second compound 0.1 µM, first compound 3 µM",38.7%
same,"viability, T/C","second compound 0.316 µM, first compound 0.00949 µM",49%
same,"viability, T/C","second compound 0.316 µM, first compound 0.03 µM",33.9%
same,"viability, T/C","second compound 0.316 µM, first compound 0.0949 µM",55.8%
same,"viability, T/C","second compound 0.316 µM, first compound 0.3 µM",30.4%
same,"viability, T/C","second compound 0.316 µM, first compound 0.949 µM",59.7%
same,"viability, T/C","second compound 0.316 µM, first compound 3 µM",36.1%
same,"viability, T/C","second compound 1 µM, first compound 0.00949 µM",48.3%
same,"viability, T/C","second compound 1 µM, first compound 0.03 µM",47%
same,"viability, T/C","second compound 1 µM, first compound 0.0949 µM",38.7%
same,"viability, T/C","second compound 1 µM, first compound 0.3 µM",45.5%
same,"viability, T/C","second compound 1 µM, first compound 0.949 µM",29.2%
same,"viability, T/C","second compound 1 µM, first compound 3 µM",40%
same,"viability, T/C","second compound 3.16 µM, first compound 0.00949 µM",36.8%
same,"viability, T/C","second compound 3.16 µM, first compound 0.03 µM",34.1%
same,"viability, T/C","second compound 3.16 µM, first compound 0.0949 µM",34.4%
same,"viability, T/C","second compound 3.16 µM, first compound 0.3 µM",46.9%
same,"viability, T/C","second compound 3.16 µM, first compound 0.949 µM",37.9%
same,"viability, T/C","second compound 3.16 µM, first compound 3 µM",27.5%
same,"viability, T/C","second compound 10 µM, first compound 0.00949 µM",40.6%
same,"viability, T/C","second compound 10 µM, first compound 0.03 µM",64.6%
same,"viability, T/C","second compound 10 µM, first compound 0.0949 µM",52.8%
same,"viability, T/C","second compound 10 µM, first compound 0.3 µM",38.5%
same,"viability, T/C","second compound 10 µM, first compound 0.949 µM",40.5%
same,"viability, T/C","second compound 10 µM, first compound 3 µM",45.9%
